In patent US20160199351A1, “COMPOSITIONS AND METHODS FOR INHIBITING FUNGAL INFECTIONS” (priority 2015, published 2016):
Values after ≈ are worked out from the molar mass of the structure shown. Like-named read-outs stand apart in the source and are kept apart here.

How the values were obtained:
[1] = system: Pneumocystis carinii; test: In vitro ATP content of Pneumocystis (luciferin-luciferase assay)
[2] = system: Pneumocystis murina; test: as above
[3] = system: Histoplasma capsulatum; type: cell-based; conditions: 24-hour treatment
[4] = system: C. parapsilosis; test: MIC against Candida species (Table 4); conditions: 24 h
[5] = system: C. krusei; test: MIC against Candida species (Table 4); conditions: Pichia kudriavzevii, 24 h
[6] = system: C. glabrata; test: MIC against Candida species (Table 4); conditions: Nakaseomyces glabratus, 24 h
[7] = system: C. guilliermondii; test: MIC against Candida species (Table 4); conditions: Meyerozyma guilliermondii, 24 h
[8] = system: Cryptococcus neoformans; test: MIC against Cryptococcus neoformans (Table 4); conditions: Cryptococcus neoformans, 72 h
[9] = system: Paeceilomyces variotii; test: MIC, CLSI M38-A2 broth dilution (Table 1); type: cell-based; conditions: isolate QC
[10] = system: Rhizopus oryzae; test: MIC, CLSI M38-A2 broth dilution (Table 1); type: cell-based
[11] = system: Scedosporium apiospermum; test: MIC, CLSI M38-A2 broth dilution (Table 1); type: cell-based
[12] = system: Lomentospora prolificans; test: MIC, CLSI M38-A2 broth dilution (Table 1); type: cell-based; conditions: isolate LP1, 48 hours
[13] = system: P. variotii; test: MIC (Table 5); conditions: Paecilomyces variotii, read-out: MIC 100%
[14] = system: Rhizopus oryzae; test: MIC (Table 5); conditions: Rhizopus arrhizus, 24 h
[15] = system: Apophysomyces; test: MIC (Table 5); conditions: 24 h
[16] = system: Aspergillus fumigatus; test: Recovery of Aspergillus fumigatus mycelia growth after removal of antifungal drugs (MTT); type: cell-based; conditions: treated 12 hours, drug removed, 24 hours more
[17] = system: Fusarium oxysporum; test: MIC, CLSI M38-A2 broth dilution (Table 1); type: cell-based
[18] = system: Fusarium solani; test: MIC, CLSI M38-A2 broth dilution (Table 1); type: cell-based; conditions: isolate FS1, 48 hours
[19] = system: Blastomyces dermatitidis; test: MIC, macrodilution method (Table 1); type: cell-based; conditions: 96 hours
[20] = system: Fusarium sp.; test: MIC (Table 5); type: cell-based; conditions: Fusarium, read-out: MIC 100%
[21] = system: Blastomyces dermatitidis; test: MIC (Table 6); type: cell-based; conditions: read-out: MIC VORI 100% 50%
[22] = system: Coccidioides sp.; test: microbe, parasite or virus in culture; type: cell-based; conditions: Coccidioides
[23] = system: Scedosporium sp.; test: MIC (Table 5)

SMILES: CC1(C)S[C@@H]2[C@H](NC(=O)[C@H](N)c3ccccc3)C(=O)N2[C@H]1C(=O)O [Ampicillin, ampicillin, reference compound]
- Pm % Reduction in ATP/Vehicle Control ([1]; Table 2, 10 μg/ml, 24 hours): 0%
- Pm % Reduction in ATP/Vehicle Control ([1]; Table 2, 10 μg/ml, 48 hours): 0%
- Pm % Reduction in ATP/Vehicle Control ([1]; Table 2, 10 μg/ml, 72 hours): 0%
- Pm % Reduction in ATP/Vehicle Control ([2]; Table 3, 10 μg/ml, 24 hours): 0%
- Pm % Reduction in ATP/Vehicle Control ([2]; Table 3, 10 μg/ml, 48 hours): 0%
- Pm % Reduction in ATP/Vehicle Control ([2]; Table 3, 10 μg/ml, 72 hours): 0%

SMILES: OC(Cn1cncn1)(Cn1cncn1)c1ccc(F)cc1F [FLU, Fluconazole, reference compound]
- reduction of fungal viability ([3]; then growth in absence of drug): did not significantly reduce fungal viability
- viability staining of yeasts ([3]; ethidium bromide / fluorescein staining): only fungistatic
- MIC50 ([4]; isolate CP-1, 24 hrs): 0.25 µg/mL (≈ 0.816 µM)
- MIC50 ([4]; isolate CP-2, 24 hrs): ≤ 0.125 µg/mL
- MIC50 ([4]; isolate CP-3, 24 hrs): 0.25 µg/mL (≈ 0.816 µM)
- MIC50 ([4]; isolate CP-4, 24 hrs): 0.25 µg/mL (≈ 0.816 µM)
- MIC50 ([4]; isolate CP-5, 24 hrs): ≤ 0.125 µg/mL
- MIC50 ([4]; isolate CP-6, 24 hrs): 16 µg/mL (≈ 52.2 µM)
- MIC50 ([4]; isolate CP-7, 24 hrs): 16 µg/mL (≈ 52.2 µM)
- MIC50 ([4]; isolate QC): 1 µg/mL (≈ 3.27 µM)
- MIC50 [5]: 8 µg/mL (≈ 26.1 µM)
- MIC50 ([6]; isolate CG-1, 24 hrs): 16 µg/mL (≈ 52.2 µM)
- MIC50 ([6]; isolate CG-2, 24 hrs): 16 µg/mL (≈ 52.2 µM)
- MIC50 ([6]; isolate CG-3, 24 hrs): 32 µg/mL (≈ 104 µM)
- MIC50 ([6]; isolate CG-4, 24 hrs): 32 µg/mL (≈ 104 µM)
- MIC50 ([6]; isolate CG-5, 24 hrs): 16 µg/mL (≈ 52.2 µM)
- MIC50 ([6]; isolate CG-6, 24 hrs): 2 µg/mL (≈ 6.53 µM)
- MIC50 ([6]; isolate CG-7, 24 hrs): 2 µg/mL (≈ 6.53 µM)
- MIC50 ([6]; isolate CG-8, 24 hrs): 2 µg/mL (≈ 6.53 µM)
- MIC50 ([6]; isolate CG-9, 24 hrs): 2 µg/mL (≈ 6.53 µM)
- MIC50 ([6]; isolate CG-10, 24 hrs): 4 µg/mL (≈ 13.1 µM)
- MIC50 ([7]; isolate Cgu-1, 24 hrs): 8 µg/mL (≈ 26.1 µM)
- MIC50 ([7]; isolate Cgu-2, 24 hrs): 2 µg/mL (≈ 6.53 µM)
- MIC50 ([7]; isolate Cgu-3, 24 hrs): 1 µg/mL (≈ 3.27 µM)
- MIC50 ([7]; isolate Cgu-4, 24 hrs): 1 µg/mL (≈ 3.27 µM)
- MIC50 ([7]; isolate Cgu-5, 24 hrs): 2 µg/mL (≈ 6.53 µM)
- MIC50 ([7]; isolate Cgu-6, 24 hrs): 8 µg/mL (≈ 26.1 µM)
- MIC50 ([7]; isolate Cgu-7, 24 hrs): 4 µg/mL (≈ 13.1 µM)
- MIC50 ([8]; isolate CN-1, 72 hrs): 4 µg/mL (≈ 13.1 µM)
- MIC50 ([8]; isolate CN-2, 72 hrs): 12 µg/mL (≈ 39.2 µM)
- MIC50 ([8]; isolate CN-3, 72 hrs): 64 µg/mL (≈ 209 µM)

SMILES: CC[C@@H]([C@H](C)O)n1ncn(-c2ccc(N3CCN(c4ccc(OC[C@@H]5CO[C@@](Cn6cncn6)(c6ccc(F)cc6F)C5)cc4)CC3)cc2)c1=O [POS, Posaconazole, reference compound]
- MIC 100% [9]: 0.25 gg/m1
- MIC 100% ([10]; isolate RO1, 24 hours): 1 gg/m1
- MIC 100% ([10]; isolate RO2, 24 hours): 1 gg/m1
- MIC 100% ([10]; isolate RO3, 24 hours): 1 gg/m1
- MIC 100% ([11]; isolate SA2, 72 hours): 2 gg/m1
- MIC 100% [12]: 0.5 gg/m1
- MIC ([13]; 24 h): 0.06 µg/mL (≈ 0.0856 µM)
- MIC ([14]; read-out: MIC 100%, isolate R-1, 24 hrs): 0.5 µg/mL (≈ 0.713 µM)
- MIC ([14]; read-out: MIC 100%, isolate R-2, 24 hrs): 0.5 µg/mL (≈ 0.713 µM)
- MIC ([14]; read-out: MIC 100%, isolate R-3, 24 hrs): 0.5 µg/mL (≈ 0.713 µM)
- MIC ([14]; read-out: MIC 100%, isolate R-4, 24 hrs): 0.125 µg/mL (≈ 0.178 µM)
- MIC ([14]; read-out: MIC 100%, isolate R-5, 24 hrs): 0.25 µg/mL (≈ 0.357 µM)
- MIC ([14]; read-out: MIC 100%, isolate R-6, 24 hrs): 0.125 µg/mL (≈ 0.178 µM)
- MIC ([15]; read-out: MIC 100%, isolate AE-1, 24 hrs): 0.125 µg/mL (≈ 0.178 µM)
- MIC ([15]; read-out: MIC 100%, isolate AE-2, 24 hrs): 1 µg/mL (≈ 1.43 µM)

SMILES: N=C(N)c1ccc(OCCCCCOc2ccc(C(=N)N)cc2)cc1 [Pent., pentamidine isethionate, reference compound]
- Pm % Reduction in ATP/Vehicle Control ([1]; Table 2, 1 μg/ml, 24 hours): 74.18%
- Pm % Reduction in ATP/Vehicle Control ([1]; Table 2, 1 μg/ml, 48 hours): 97.06%
- Pm % Reduction in ATP/Vehicle Control ([1]; Table 2, 1 μg/ml, 72 hours): 97.47%
- Pm % Reduction in ATP/Vehicle Control ([2]; Table 3, 1 μg/ml, 24 hours): 72.06%
- Pm % Reduction in ATP/Vehicle Control ([2]; Table 3, 1 μg/ml, 48 hours): 87.94%
- Pm % Reduction in ATP/Vehicle Control ([2]; Table 3, 1 μg/ml, 72 hours): 93.85%

SMILES: C[C@@H](c1ncncc1F)[C@](O)(Cn1cncn1)c1ccc(F)cc1F [VORI, Voriconazole, reference compound]
- recovery of mycelia growth after removal of drug [16]: leaves mycelia viable
- MIC 100% [9]: 0.125 gg/m1
- MIC 100% ([17]; isolate FO1, 48 hours): 16 gg/m1
- MIC 100% ([17]; isolate FO2, 48 hours): 16 gg/m1
- MIC 100% [18]: 8 gg/m1
- MIC 100% ([11]; isolate SA1, 72 hours): 0.25 gg/m1
- MIC 100% ([11]; isolate SA2, 72 hours): 0.125 gg/m1
- MIC 100% [12]: 16 gg/m1
- MIC 100% ([19]; isolate BD1, macrodilution): 0.125 gg/m1
- MIC 100% ([19]; isolate BD2, macrodilution): ≦0.03 gg/m1
- MIC 100% ([19]; isolate BD3, macrodilution): ≦0.03 gg/m1
- MIC ([20]; isolate F-1, 48/72 hrs): 8 µg/mL (≈ 22.9 µM)
- MIC ([20]; isolate F-2, 48/72 hrs): 8 µg/mL (≈ 22.9 µM)
- MIC ([20]; isolate F-3, 48/72 hrs): > 16 µg/mL
- MIC ([21]; isolate BD1, 72/192 hrs): ≤ 0.03 µg/mL
- MIC ([21]; isolate BD2, 72/192 hrs): 0.125 µg/mL (≈ 0.358 µM)
- MIC ([21]; isolate BD3, 72/192 hrs): 0.125 µg/mL (≈ 0.358 µM)
- MIC ([22]; read-out: MIC VORI 100% 50%, isolate COCCI-1, 72/192 hrs): 0.125 µg/mL (≈ 0.358 µM)
- MIC ([22]; read-out: MIC VORI 100% 50%, isolate COCCI-2, 72/192 hrs): 0.25 µg/mL (≈ 0.716 µM)
- MIC ([22]; read-out: MIC VORI 100% 50%, isolate COCCI-3, 72/192 hrs): 0.125 µg/mL (≈ 0.358 µM)
- MIC [13]: 0.06 µg/mL (≈ 0.172 µM)
- MIC ([23]; read-out: MIC 100%, isolate S-1, 48/72 hrs): 0.5 µg/mL (≈ 1.43 µM)
- MIC ([23]; read-out: MIC 100%, isolate S-2, 48/72 hrs): 16 µg/mL (≈ 45.8 µM)

SMILES: C[C@@H]1[C@H](O)[C@@H](C)/C=C/C=C/C=C/C=C/C=C/C=C/C=C/[C@H](O[C@@H]2O[C@H](C)[C@@H](O)[C@H](N)[C@@H]2O)C[C@@H]2O[C@](O)(C[C@@H](O)C[C@@H](O)[C@H](O)CC[C@@H](O)C[C@@H](O)CC(=O)O[C@H]1C)C[C@H](O)[C@H]2C(=O)O [amphotericin B]
- recovery of mycelia growth after removal of drug [16]: no viable Aspergillus fumigatus mycelia

SMILES: CC[C@H](C)C[C@H](C)CCCCCCCCC(=O)N[C@H]1C[C@@H](O)[C@@H](NCCN)NC(=O)[C@@H]2[C@@H](O)CCN2C(=O)[C@H]([C@H](O)CCN)NC(=O)[C@H]([C@H](O)[C@@H](O)c2ccc(O)cc2)NC(=O)[C@@H]2C[C@@H](O)CN2C(=O)[C@H]([C@@H](C)O)NC1=O [caspofungin]
- recovery of mycelia growth after removal of drug [16]: leaves mycelia viable
